Where a name gives a salt, the structure may show the parent alone. Read-outs that look alike come from different tables or passages of the source.
Key:
[1] = test system: ADP induced platelet aggregation; assay: Measurement of platelet aggregation with ADP, ex vivo whole blood impedance aggregometry after oral dosing; assay type: in vivo, rat; conditions: SD rats, blood 4 h after dosing, 10 μM ADP; for % aggregation: vehicle control = 100%
Method: Measurement of Platelet Aggregation with ADP
The activity on the aggregation of plates induced by ADP or collagen was determined ex-vivo.
The products as a suspension in 5% Gum Arabica (aq.) were administered by oral route to groups of six male rats of the SD strain, weighing 250-300 g. After 4 hours of the administration, 2 ml of blood is collected into the heparinized tubes by puncture of retro-orbital sinus. 0.5 ml of the anticoagulated blood is diluted with an equal volume of isotonic saline solution and incubated at 37° C. for 10 minutes. To the incubated whole blood, 10 μM ADP is added and the change in impedance (Ω), which reflects platelet aggregation, is recorded for 8 minutes with Chronolog Whole Blood Aggregometer (Model 592, Chrono-log Corp., USA). The percentage inhibition of platelet aggregation is calculated by the following formula considering the vehicle control reading as 100%:

[2] = test system: FeCl3 induced arterial thrombus formation (common carotid artery); assay: FeCl3 induced Arterial Thrombosis Model; assay type: in vivo, rat; conditions: SD rats, 30% FeCl3 1 hour post dosing
Method: 2. Anti-Thrombotic Activity
The antithrombotic activity has also been studied in FeCl3 induced Arterial Thrombosis Model according to standard procedures reported by William A. Schumacher et al., 2007 (Journal of Pharmacology and Experimental Therapeutics, 322 (I): 369-377) and Takao Tanaka et al. 2000 (European Journal of Pharmacology, 401: 413-418).
The products were dissolved in DMSO (1 mg/ml) and diluted in PEG/Water (Ratio: DMSO:PEG:Water=5:50:45), and were administered by the per oral mute to groups of 8 male rats of the SD strain, weighing 250-300 g after overnight fast. 1 hour post dosing, rats were anesthetized with Ketamine (100 mg/kg; i.p.), Xylazine (10 mg/kg; i.p) and placed on a heating pad. After aseptic preparation of the tracheal and scapular region of the rats, a midline incision of the tracheal area was made and a blunt dissection was performed to expose the common carotid artery. Approximately 2 cm of the common carotid artery was freed from the connective tissues, jugular veins, and vagus nerve and a ˜3 mm filter paper, briefly soaked in 30% FeCl3 solution, was placed around the artery for 10 min. The artery was isolated after 15 mins of the removal of filter paper and the rat was euthanized. Thrombus developed was scraped out from the extracted artery and kept for drying for 24 hours. The wet and dry weight of thrombus was recorded and expressed as mg weight of thrombus per kg body weight. % inhibition of the thrombus formation is calculated using the formula: […]

[3] = Stability of the isolated isomer against conversion into mixture of isomers (keto-enol tautomerism); assay type: physicochemical; conditions: normal conditions, even in solutions
From the text: The present invention is realized by way of preferential stereoselective crystallization of one of the isomer {(7aS,2′S)-isomer} from a mixture of isomers with or without dynamic conversion of counter stereo-isomer {(7aR,2′S)-isomer} through enol form. 2-oxo-clopidogrel can exists in three isomeric forms, namely structures of formula II, Formula VI and Formula VII. […] Once the double bond in the ring flips between the tetrahydropyridine nucleus and the thiophene ring, it destroys the chiral centre at 7a position, especially during its formation, resulting in mixture of isomers. Therefore, to date, there are no reports available to exclusively isolate one of the isomer selectively. […] The compounds of the present invention are substantially free of other isomers for example, compound of Formula VI, and Formula VII, apart from isomer of Formula IIB. Substantially free herein means the levels of these compounds individually or cumulatively are less than 10%, preferably less than, 5%, more preferably less than 3%, still more preferably, less than 1.0%.

[4] = test system: recurrent ischemic events / major bleeding events; conditions: cited from earlier work
[5] = test system: rat; conditions: in rat; cited from earlier work
[6] = test system: ADP induced platelet aggregation; conditions: cited from earlier work; for time until 50% inhibition of ADP induced platelet aggregation is reached: LTA, 5 μM ADP ex-vivo
[7] = cited from earlier work
[8] = 2.2 mg/kg p.o. (1.98 mg/kg base)
[9] = 1.3 mg/kg p.o. (1.17 mg/kg base)
[10] = patients at high risk of vascular events
[11] = combined with Aspirin therapy in patients with ACS

Compound: COC(=O)[C@H](c1ccccc1Cl)N1CCC2SC(=O)C=C2C1.Cl (stereo partly drawn) [(2'S)-2-oxoclopidogrel hydrochloride]
- % inhibition [1, 8]: 48.04%
- % aggregation [1, 8]: 51.96%

Compound: COC(=O)C(c1ccccc1Cl)N1CCC2SC(=O)C=C2C1 [(7aS,2'S)-2-oxoclopidogrel bisulphate, Methyl (7aS,2′S)-2-(2-chlorophenyl)-2-(2,4,5,6,7,7a-hexahydrothieno[3,2-c]-5-pyridin-2-one)acetate hydrogen sulfate]
- % aggregation ([1]; 2.5 mg/kg p.o. (1.9 mg/kg base)): 14.57%
- % aggregation ([1]; 3.5 mg/kg p.o. (2.7 mg/kg base)): 9.14%
- inhibition at 2.5 mg/kg ([1]; Rattus norvegicus, Platelet, po, 2.5 mg/kg p.o. (1.9 mg/kg base)): 85.4%
- inhibition at 3.5 mg/kg ([1]; Rattus norvegicus, Platelet, po, 3.5 mg/kg p.o. (2.7 mg/kg base)): 90.9%
- % Inhibition of Thrombus Formation (Mean ± SEM) [2, 9]: 76 ± 3.3%
- Dry weight of Thrombus (mg/kg) (Mean ± SEM) [2, 9]: 0.98 ± 0.1 mg/kg

Compound: COC(=O)C(c1ccccc1Cl)N1CCC2SC(=O)C=C2C1 [(7aS,2′S)-2-oxoclopidogrel, Methyl (7aS,2′S)-2-(2-chlorophenyl)-2-(2,4,5,6,7,7a-hexahydrothieno[3,2-c]-5-pyridin-2-one)acetate]
- stability against conversion into mixture of isomers [3]: stable and resistant to conversion into mixture

Compound: CC(=O)Oc1ccccc1C(=O)O [Aspirin]
- Absolute risk increase (ARI), major bleeding events [4, 10]: about 0.5%
- absolute risk reduction (ARR), recurrent ischemic events [4, 10]: about 2%
- increase in the odds of major bleeding events [4, 10]: about 60%
- reduction of the risk of recurrent ischemic events [4, 10]: 22%

Compound: COC(=O)[C@H](c1ccccc1Cl)N1CCc2sccc2C1 [Clopidogrel bisulphate]
- % aggregation ([1]; 25 mg/kg p.o. (19.15 mg/kg base)): 22.85%
- inhibition at 25 mg/kg ([1]; Rattus norvegicus, Platelet, po, 25 mg/kg p.o. (19.15 mg/kg base)): 77.2%
- % Inhibition of Thrombus Formation (Mean ± SEM) ([2]; 4 mg/kg p.o. (3.06 mg/kg base)): 73 ± 5.3%
- Dry weight of Thrombus (mg/kg) (Mean ± SEM) ([2]; 4 mg/kg p.o. (3.06 mg/kg base)): 1.10 ± 0.2 mg/kg

Compound: CC(=O)Oc1cc2c(s1)CCN(C(C(=O)C1CC1)c1ccccc1F)C2 (stereo not drawn) [Prasugrel hydrochloride]
- % aggregation ([1]; 2.2 mg/kg p.o. (2 mg/kg base)): 18.93%
- inhibition at 2.2 mg/kg ([1]; Rattus norvegicus, Platelet, po, 2.2 mg/kg p.o. (2 mg/kg base)): 81.1%

Compound: COC(=O)[C@H](c1ccccc1Cl)N1CCc2sccc2C1 [clopidogrel, (+)-(S)-methyl2-(2-chlorophenyl)-2-(6,7-dihydrothieno[3,2-c]pyridin-5(4H)-yl)acetate]
- ARR, recurrent ischemic events [4, 11]: about 2.1%
- further reduction of the risk of recurrent ischemic events [4, 11]: 20%
- lethal dose [5]: about 5000 mg per kg
- inhibition of ADP induced platelet aggregation ([6]; 900 mg, at 5 μM ADP): 60%
- inhibition of platelet aggregation ([6]; 900 mg, induced by 20 μM of ADP (ex vivo)): less than 50%
- time until 50% inhibition of ADP induced platelet aggregation is reached ([6]; dose 600 mg): 2 h
- time until 50% inhibition of ADP induced platelet aggregation is reached ([6]; loading dose of 300 mg): 4 to 6 h
- share converted to clopidogrel acid in vivo [7]: 90%

Reference: patent publication US8536337B2, “Solid forms of methyl (7aS,2′S)-2-(2-chlorophenyl)-2-(2,4,5,6,7,7a-hexahydrothieno[3,2-c]-5-pyridin-2-one)acetate” (IPCA Laboratories Limited, priority 2012, dated 2013)
